# Experimental data taken from patent US20190256929A1, “PHARMACODYNAMIC BIOMARKERS FOR PERSONALIZED CANCER CARE USING EPIGENETIC MODIFYING AGENTS” (ORYZON GENOMICS, S.A., priority 2016, published 2019).
# Columns and labels:
# [1] = tested on: panel of 14 cell lines (small cell lung cancer, non-small-cell lung cancer, acute myelogenic leukemia, acute lymphoblastic T-cell leukemia); test: RNA-seq differential gene expression of PD markers in a panel of 14 cell lines; assay type: cell-based, human; conditions: 5 nM, 6 days
# Experimental: A panel of 14 cell lines was treated with (trans)-N1-((1R,2S)-2-phenylcyclopropyl)cyclohexane-1,4-diamine (5 nM) or control vehicle for 6 days. The panel included eight small cell lung cancer cell lines (COLO 668, DMS 53, NCI-H146, NCI-H187, NCI-H446, NCI-H510A, NCI-H1417, SHP-77), two non-small-cell lung cancer cell lines (CAL-12T, NCI-H441), two acute myelogenic leukemia cell lines (KASUMI, OCI-AML2), and two acute lymphoblastic T-cell leukemia cell lines (JURKAT, SUP-T1).
# Each cell line-treatment pair contained two to four biological replicates.
# Expression data were obtained from whole transcriptomic RNA sequencing (RNA-seq) by Illumina, Inc. (San Diego, Calif.). The Illumina HiSeq machine generates raw base calls in reads of 50 or 100 bp length, which are subjected to several data analysis steps. The RNA-seq is conducted at 40 to 50 million reads per sample. This number provides relatively high sensitivity to detect low-expressed genes while allowing for cost-effective multiplexing of samples. RNA is prepared by standard kits and RNA libraries by polyA TruSeq Illumina kits. 100 ng of mRNA per cell line is used for each RNA-seq reaction. A number of quality control procedures are applied to the RNA-seq data for each sample. The Illumina HiSeq software reports the total number of clusters (DNA fragments) loaded in each lane, percent passing sequencing quality filters (which identifies errors due to overloading and sequencing chemistry), a phred quality score for each base of each sequence read, overall average phred scores for each sequencing cycle, and overall percent error (based on alignment to the reference genome). For each RNA-seq sample, the percentage of reads that contain mitochondrial and ribosomal RNA was calculated. The FASTQC package was used to provide additional QC metrics (base distribution, sequence duplication, overrepresented sequences, and enriched kmers) and a graphical summary. Raw reads were aligned against the human genome (hg19) using GSNAP and recommended options for RNASeq data. In addition to the genome sequence, GSNAP is given a database of human splice junctions and transcripts based on Ensembl v73. Resulting SAM files are then converted to sorted BAM files using Samtools. Gene expression values are calculated both as RPKM values following (Mortazavi A. et al. (2008) Nature Methods 5:621-628) and as read counts.
# Differential gene expression analysis was performed using the DESeq2 package (Love M. I. et al. (2014) Genome Biology 15:550). Read counts from RNA-seq data were analyzed via a multi-factor generalized linear model of the negative binomial family, considering both treatment and the cell line type as factors that explain the changes in gene expression values.
# The following filtering process was applied to identify genes that can serve as PD markers in surrogate tissues (skin or blood): • 1. […] The minimal expression level of the gene in normal blood and skin tissues was greater than one read per kilobase per million reads (RPKM, Mortazavi et al.), as obtained from the Genotype-Tissue Experssion (GTEx) project (The GTEx Consortium (2015) Science 348(6235):648-660). • 4. The minimal expression level of the gene in PBMC tissues was greater than 20 fragments per kilobase per million (FPKM; Trapnell C. et al. (2010) Nature Biotechnology 28:511-515) as obtained from the Ohmomo et al. study (Ohmomo H. et al. (2014) PLOS ONE 9(8):1-11). • 5. The gene is a target of LSD1, as determined by chromatin immunoprecipitation (ChIP) assay from the Adamo et al. study, or interacts with the LSD1 gene, as annotated by the BioGRID database (thebiogrid.org).
# Additionally, we analyzed differential gene expression for a set of 35 genes which were previously identified as predictive biomarkers of response to LSD1 treatment.
# Differentially expressed pathway analysis was done by the MetaBase R Library (Thompson Reuters).
# [2] = tested on: SCLC 510A xenografts; test: RNA-seq PD gene change in H510A SCLC xenograft mouse model; assay type: in vivo, mice; conditions: for ASCL1 Log2FC / GRP Log2FC / NOTCH1 Log2FC: vs vehicle
# Experimental: Female athymic nude mice, approximately 7-8-week old animals, were injected with 5 million H510A cells per 50 μL PBS and 50 μL Matrigel (BD Bioscience) into the right flank of each animal. After tumor growth reached 200-300 mm3, animals were distributed in three homogeneous groups with similar mean tumor volume and SD. Animals were treated with vehicle, 20 μg/Kg and 40 μg/Kg of (trans)-N1-((1R,2S)-2-phenylcyclopropyl)cyclohexane-1,4-diamine for 3 weeks according to the 5 days on/2 days off schedule.
# Mice were sacrificed at day 35 at 1, 6 and 24 hours post last injection. Blood was extracted in Microvette® (Sarstedt) tubes, centrifuged on a bench-top centrifuge at 2000 rpm for 15 min at 4 C. Supernatant was stored at −80° C. Tumors were removed and divided in 3 parts: ⅓ was immersed in RNA-Later and snap frozen for subsequent analysis. Frozen material was stored at −80° C. before shipment.
# Whole transcriptomic RNA sequencing procedure is identical to that as described in Example 1. Raw RNASeq reads were aligned to the mouse and the human transcriptome using GSNAP and were then analyzed. Reads mapped to both organisms were filtered out and only reads that were uniquely aligned to human or mouse were used to profile the respective genes. The log 2 fold change of three candidate PD markers between (trans)-N1-((1R,2S)-2-phenylcyclopropyl)cyclohexane-1,4-diamine treated and vehicle treated samples were calculated using DESeq2 package (Love et al.).
# [3] = RNA-seq, median across all cell lines, vs vehicle
# [4] = 20 μg/kg, 1 h post last injection
# [5] = 20 μg/kg, 6 h post last injection
# [6] = 20 μg/kg, 24 h post last injection
# [7] = 40 μg/kg, 1 h post last injection
# [8] = 40 μg/kg, 6 h post last injection
# [9] = 40 μg/kg, 24 h post last injection
compound,measurement,setting,value
"N[C@H]1CC[C@H](N[C@@H]2C[C@H]2c2ccccc2)CC1 [RG6016, (trans)-N1-((1R,2S)-2-phenylcyclopropyl)cyclohexane-1,4-diamine]",ASCL1 differential gene expression after treatment (in words),[1]; RNA-seq,very significantly down-regulated
same,GRP differential gene expression after treatment (in words),[1]; RNA-seq,very significantly down-regulated
same,CNN2 Median Log2 FC,[1]; [3],0.35
same,DENND5A Median Log2 FC,[1]; [3],0.32
same,NOTCH1 Median Log2 FC,[1]; [3],0.49
same,VIM Median Log2 FC,[1]; [3],0.46
same,ZFP36L1 Median Log2 FC,[1]; [3],0.27
same,ASCL1 Median Log2 FC,"[1]; RNA-seq, vs vehicle",−0.16
same,GRP Median Log2 FC,"[1]; RNA-seq, vs vehicle",−0.26
same,"development NOTCH signaling pathway, differentially expressed pathway analysis","[1]; MetaBase R Library, RNA-seq data",one of the most significantly differentially expressed pathway
same,ASCL1 Log2FC,[2]; [4],−0.525
same,GRP Log2FC,[2]; [4],−1.607
same,NOTCH1 Log2FC,[2]; [4],1.947
same,ASCL1 Log2FC,[2]; [5],−0.545
same,GRP Log2FC,[2]; [5],−0.794
same,NOTCH1 Log2FC,[2]; [5],1.388
same,ASCL1 Log2FC,[2]; [6],−0.472
same,GRP Log2FC,[2]; [6],−1.205
same,NOTCH1 Log2FC,[2]; [6],1.679
same,ASCL1 Log2FC,[2]; [7],−0.783
same,GRP Log2FC,[2]; [7],−1.75
same,NOTCH1 Log2FC,[2]; [7],2.727
same,ASCL1 Log2FC,[2]; [8],−0.825
same,GRP Log2FC,[2]; [8],−1.421
same,NOTCH1 Log2FC,[2]; [8],2.321
same,ASCL1 Log2FC,[2]; [9],−1.286
same,GRP Log2FC,[2]; [9],−2.742
same,NOTCH1 Log2FC,[2]; [9],3.423
same,ASCL1 transcript down regulation (FIG. 9),[2]; SCLC 510A xenografts,dose and time dependent
same,GRP transcript down regulation (FIG. 10),[2]; SCLC 510A xenografts,dose and time dependent
same,NOTCH1 transcript up regulation (FIG. 11),[2]; SCLC 510A xenografts,dose and time dependent
